Data on eight compounds can be found in patent US7202235B2, “Tetracycline compounds for treatment of cryptosporidium parvum related disorders” (Trustees of Tufts College, priority 2000, dated 2007).

The experiment relates to Cryptosporidium parvum. The experiment can be described thus: Assay for the ability of tetracycline compounds to control Cryptosporidium parvum infection in vitro (indirect immunofluorescence parasite count). It counts as cell-based. As to conditions: C. parvum GCH1 oocysts in MDCK/MDBK cell monolayers, 48 hour incubation, IF parasite count, class by concentration giving 70% inhibition. The method, then: This assay is designed to test the ability of a tetracycline compound to control Cryptosporidium parvum infection in vitro. […] MDCK cells were grown in 96-well microtiter plastic plates, and were seeded with approximately 5×10^4 cells per well, using DMEM as the growth/maintenance medium with 10% FCS. Plates were normally grown to confluence 2–3 days after having been seeded with bleached, less than four week-old, C. parvum oocysts. The C. parvum isolate used most often was the human-derived, calf-propagated GCH1 (Tzipori, Clin. Diagn. Lab. Immunol. (1994) 1:450; Tzipori, J. Infect. Dis. (1995) 172:1160). The DMEM medium was also added to the negative control wells. The tetracycline compounds and the oocysts were added to the wells concurrently. The cells were subsequently monitored twice daily and any apparent morphologic changes were recorded. The monolayers were fixed with methanol after 48 hour incubation at 37° C. in 8% CO2. […] The tetracycline compounds were used at various concentrations (0.1–2000 μg/mL) and were dissolved directly into the culture medium. A conventional indirect immunofluorecensce (IF) assay was used to detect and enumerate parasite forms after 48-hour incubation. For the purposes of this assay, a polyclonal rabbit anti-sporozoite antibody was produced. […] The secondary antibody, a fluoroscein-conjugated goat anti-rabbit IgG, was used at a concentration of 1:100, according the manufacturer's instructions. The primary antibody was added after fixation for thirty minutes and after vigorous washing, the secondary antibody was incubated for another thirty minutes. The dried microtiter plate was viewed with an inverted microscope (x10 mag.), under ultraviolet light. For parasite counts, a semi-automated video imaging MCID system was used to facilitate the enumeration and analysis of the parasite data. In Table 1, good inhibition of C. parvum is indicated by ‘*’ (e.g., 70% inhibition at concentrations above 10 μg/ml and above) and very good inhibition of C. parvum is indicated by ‘**’ (e.g., 70% inhibition at concentrations below 10 μg/ml).
`CN(C)c1cc(C#CC2=CCCCC2)c(O)c2c1CC1CC3[C@H](N(C)C)C(O)=C(C(N)=O)C(=O)[C@@]3(O)C(O)=C1C2=O` (some centres unmarked) showed an IC70 of less than 10 µg/mL.
The figure for `CCC(=O)O[C@H]1C2C(=C(O)[C@]3(O)C(=O)C(C(N)=O)=C(O)[C@@H](N(C)C)C13)C(=O)c1c(ccc(C(C)(C)C)c1O)[C@@H]2C` (some centres unmarked) is not below 10 µg/mL; for `CN(C)[C@@H]1C(O)=C(C(N)=O)C(=O)[C@@]2(O)C(O)=C3C(=O)c4c(O)cccc4SC3[C@H](O)C12` (some centres unmarked) it is not below 10 µg/mL; for `C[C@H]1c2ccc(C(C)(C)C)c(O)c2C(=O)C2=C(O)[C@]3(O)C(=O)C(C(N)=O)=C(O)[C@@H](N(C)C)C3[C@@H](O)C21` (some centres unmarked) it is less than 10 µg/mL.
The figure for `CCC(=O)O[C@H]1C2C(=C(O)[C@]3(O)C(=O)C(C(N)=O)=C(O)[C@@H](N(C)C)C13)C(=O)c1c(O)cccc1[C@@H]2CSC1CCCC1` (some centres unmarked) is less than 10 µg/mL.
The figure for `CN(C)[C@@H]1C(O)=C(C(N)=O)C(=O)[C@@]2(O)C(O)=C3C(=O)c4c(O)cccc4[C@H](CSC4CCCC4)C3[C@H](O)C12` (some centres unmarked) is less than 10 µg/mL.
Turning to `C[C@H]1c2cccc(O)c2C(=O)C2=C(O)[C@]3(O)C(=O)C(C(N)=O)=C(O)[C@@H](N(C)C)C3[C@@H](O)C21` (some centres unmarked), the IC70 is not below 10 µg/mL.
`C[C@H]1c2ccc(C3=CCCC3)c(O)c2C(=O)C2=C(O)[C@]3(O)C(=O)C(C(N)=O)=C(O)[C@@H](N(C)C)C3[C@@H](O)C21` (some centres unmarked) displayed an IC70 of less than 10 µg/mL.
